One may read the IC50 as the midpoint of a concentration-inhibition curve. One may read the half-life as how long it takes for the measured level to halve. As a reminder, the AUC is the area under the concentration-time curve, a measure of exposure. One may read the clearance as a measure of how efficiently the substance is removed, as volume per time.

The target of data set [1] is T1, Tyrosine-protein kinase SYK (Homo sapiens, UniProt P43405). In words: Inhibition of Syk (unknown origin) assessed as enzyme activity at 2 uM preincubated for 20 mins followed by 33P-gamma-ATP measured after 120 mins by HotSpot assay relative to control. More on the design: scale not given: the % may be the effect or the level left. The settings on record: time 140.0 min.

The target of data set [2] is T1, Tyrosine-protein kinase SYK. In words: Inhibition of Syk (unknown origin) preincubated for 20 mins followed by 33P-gamma-ATP measured after 120 mins by HotSpot assay.
The test system of data set [3] is Ramos. The data set is described as follows: Inhibition of […] in serum-starved human Ramos cells incubated for 1 hr followed by anti-human IgM F(ab)2 measured after 5 mins. Type of data set: functional, cell-based.
Data set [4] concerns MV4-11. In words: Inhibition of cell viability in human MV4-11 cells incubated for 72 hrs by Cell Titer Glo assay. It is filed as functional, cell-based. Conditions: MV4-11, 72 h.
A short description of data set [5]: Metabolic stability in human liver microsomes assessed as half life at […] incubated for 60 mins in presence of NADPH by LC-MS/MS analysis. Type of data set: ADME, Microsome. (In general: Microsomes from liver hold many membrane-bound enzymes, among them those of drug oxidation.)
A short description of data set [6]: Metabolic stability in human liver microsomes assessed as intrinsic clearance at […] incubated for 60 mins in presence of NADPH by LC-MS/MS analysis. It is filed as ADME, Microsome. Conditions: read-out: CLH.
A short description of data set [7]: AUC in fasted Sprague-Dawley rat at 1 mg/kg, iv measured for 24 hrs by LC-MS/MS analysis. It is filed as ADME, organism-based. The settings on record: in vivo.
A short description of data set [8]: Half life in fasted Sprague-Dawley rat at 1 mg/kg, iv measured for 24 hrs by LC-MS/MS analysis. Type of data set: ADME, organism-based. Conditions: in vivo.
A short description of data set [9]: Clearance in fasted Sprague-Dawley rat at 1 mg/kg, iv measured for 24 hrs by LC-MS/MS analysis. It is filed as ADME, organism-based. Conditions: in vivo.
A short description of data set [10]: Volume of distribution at steady state in fasted Sprague-Dawley rat at 1 mg/kg, iv measured for 24 hrs by LC-MS/MS analysis. Type of data set: ADME, organism-based. The settings on record: in vivo, read-out: Vdss.
Data set [11] can be described thus: C0 in fasted Sprague-Dawley rat at 1 mg/kg, iv measured for 24 hrs by LC-MS/MS analysis. The settings on record: in vivo. It is filed as ADME, organism-based.

Take `c1ccc2[nH]c(-c3n[nH]cc3Nc3ccnc(NCC4CCCCC4)n3)nc2c1`: the Activity in data set [1] worked out at 47.9%.

In turn, `c1ccc(Nc2nccc(Nc3c[nH]nc3-c3nc4ccccc4[nH]3)n2)cc1` returned an IC50 in data set [2] of 687 nM.

In data set [2], `Nc1nccc(Nc2c[nH]nc2-c2nc3ccccc3s2)n1` returned an IC50 of 163 nM.

For the compound `Cc1cc2nc(-c3n[nH]cc3Nc3ncnc4c3ccn4C)[nH]c2cc1C`, in [2], half-maximal inhibition (IC50) was put at 21.4 nM.

For `COCCOc1ccc2[nH]c(-c3n[nH]cc3Nc3ncnc4[nH]ccc34)nc2c1`, the values for the IC50 in [3], in data set [2] and in [4] were 78.9 nM, 5.5 nM and 27.6 nM, respectively.

In [2], `O=C(Nc1nccc(Nc2c[nH]nc2-c2nc3ccccc3[nH]2)n1)c1ccccc1` displayed an IC50 of 531 nM.

As to `c1ccc2[nH]c(-c3n[nH]cc3Nc3ncnc4[nH]ccc34)nc2c1`, the IC50 in [2] is 20.5 nM.

With `CCN(CC)CCNc1nccc(Nc2c[nH]nc2-c2nc3ccccc3[nH]2)n1`, the Activity in data set [1] is 40.5%.

For the compound `c1nc(Nc2c[nH]nc2-c2nc3cc(OCCN4CCOCC4)ccc3[nH]2)c2cc[nH]c2n1`, the IC50 in data set [3] was found to be 30.7 nM; in [2] it was 1.1 nM; in [4], 12.4 nM. Moreover, the half-life in data set [5] turned out to be 27.2 min. Further, the microsomal CLint in [6] is 63.9 µL/min/mg.

For `c1ccc2[nH]c(-c3n[nH]cc3Nc3ccnc(NC4CCCC4)n3)nc2c1`, the Activity in data set [1] was determined as 36.3%.

With `COc1ccc2[nH]c(-c3n[nH]cc3Nc3ncnc4[nH]ccc34)nc2c1`, the IC50 is 41.5 nM in [3], 4.9 nM in data set [2] and 10.8 nM in [4]. Besides, the half-life in data set [5] was 17.3 min. Further, the microsomal CLint in data set [6] is 79.9 µL/min/mg.

Take `c1ccc2[nH]c(-c3n[nH]cc3Nc3ncnc4c3CCC4)nc2c1`: the Activity in data set [1] stood at 18.5%.

Consider `c1cc(N2CCCCC2)c2nc(-c3n[nH]cc3Nc3ncnc4[nH]ccc34)[nH]c2c1`, for which, in data set [2], the IC50 stood at 58 nM.

Take `CCNc1c[nH]nc1-c1nc2ccccc2[nH]1`: the IC50 in data set [2] stood at 15800 nM.

For `Cc1cccc2[nH]c(-c3n[nH]cc3Nc3ncnc4[nH]ccc34)nc12`, the concentration for half-maximal inhibition (IC50) is 39.2 nM in [3], 5.6 nM in data set [2] and 11 nM in data set [4]. In [5], the half-life worked out at 97.8 min. Also, in data set [6], the microsomal CLint was found to be 14.2 µL/min/mg.

Take `Nc1cc(Nc2c[nH]nc2-c2nc3ccccc3[nH]2)ncn1`: the IC50 in data set [2] was determined as 135 nM.

Regarding `CN(C)c1cccc2[nH]c(-c3n[nH]cc3Nc3ncnc4[nH]ccc34)nc12`, the figures for the IC50 in data set [3], in data set [2] and in data set [4] were 18.5 nM, 11.1 nM and 20.4 nM, respectively. Moreover, the half-life in data set [5] is 33.3 min. Also, in data set [6], the microsomal CLint came to 52.2 µL/min/mg.

The compound `Cc1cc2nc(-c3n[nH]cc3Nc3ncnc4sccc34)[nH]c2cc1C` gave an IC50 in data set [2] of 77.6 nM.

With `CN1CCN(c2ccc3[nH]c(-c4n[nH]cc4Nc4ncnc5[nH]ccc45)nc3c2)CC1`, the IC50 in [3] was 49.5 nM; in data set [2], 1.6 nM; in [4], 7.9 nM. The values for the half-life in data set [5] and in [8] were 105 min and 148 min, respectively. For the same compound, the AUC at 24 h in [7] came to 332 ng·h/mL. In data set [6], the microsomal CLint stood at 13.2 µL/min/mg. This compound also had a clearance in [9] of 51.7 mL/min/kg. For the same compound, the Vd in [10] was 6.99 L/kg. For the same compound, the C0 at 24 h in [11] is 763 ng/mL.

With `CC(C)(C)c1ccc2[nH]c(-c3n[nH]cc3Nc3ncnc4[nH]ccc34)nc2c1`, in [2], the IC50 was 67.4 nM.

On to `Cc1cc2nc(-c3n[nH]cc3Nc3ccnc4[nH]ccc34)[nH]c2cc1C`, for which, in data set [2], the IC50 amounted to 28.2 nM.

As for `CN(C)c1ccc2[nH]c(-c3n[nH]cc3Nc3ncnc4[nH]ccc34)nc2c1`, the IC50 in [3] was found to be 61.4 nM; in [2], 2.7 nM; in data set [4], 19.7 nM. In addition, in [5], the half-life came out at 44.9 min. Also, in data set [6], the microsomal CLint amounted to 30.8 µL/min/mg.

Take `Fc1ccc2[nH]c(-c3n[nH]cc3Nc3ncnc4[nH]ccc34)nc2c1`: the IC50 in data set [2] amounted to 33.6 nM.

As to `c1ccc2[nH]c(-c3n[nH]cc3NC3CCNCC3)nc2c1`, in data set [1], the Activity turned out to be 82.7%.

Regarding `Nc1cccc(CNc2c[nH]nc2-c2nc3ccccc3[nH]2)c1`, the Activity in [1] was 52.6%.

As to `CN(C)CCN(C)c1ccc2[nH]c(-c3n[nH]cc3Nc3ncnc4[nH]ccc34)nc2c1`, the IC50 in data set [3] worked out at 35.9 nM; in [2], 3.2 nM; in data set [4], 9.3 nM. For the same compound, the half-life in [5] is 87.3 min. In addition, the microsomal CLint in data set [6] was found to be 15.9 µL/min/mg.

`Nc1nccc(Nc2c[nH]nc2-c2nc3ccccc3[nH]2)n1` had an IC50 in [2] of 60.1 nM.

With `Cc1ccc2[nH]c(-c3n[nH]cc3Nc3ncnc4[nH]ccc34)nc2c1`, the IC50 in [2] came to 9.3 nM.

With `c1nc(Nc2c[nH]nc2-c2nc3cc(N4CCCCC4)ccc3[nH]2)c2cc[nH]c2n1`, the IC50 in data set [3] turned out to be 184 nM; in data set [2], 5.9 nM; in [4], 66.4 nM.

As to `c1cc(N2CCCC2)c2nc(-c3n[nH]cc3Nc3ncnc4[nH]ccc34)[nH]c2c1`, the IC50 in [3] was 26.8 nM; in [2] it was 14.5 nM; in [4] it was 82.5 nM. Also, in data set [5], the half-life amounted to 44.4 min. The microsomal CLint in data set [6] was found to be 78.1 µL/min/mg.

`Clc1nccc(Nc2c[nH]nc2-c2nc3ccccc3[nH]2)n1`: the IC50 in data set [2] came out at 240 nM.

As to `Clc1cc(Nc2c[nH]nc2-c2nc3ccccc3[nH]2)nc(N2CCOCC2)n1`, in [1], the Activity was 91.2%.

On to `Cc1nc(Cl)cc(Nc2c[nH]nc2-c2nc3ccccc3[nH]2)n1`, for which the IC50 in data set [2] came to 1220 nM.

With `COC(=O)c1cc(Nc2c[nH]nc2-c2nc3ccccc3[nH]2)nc(Cl)n1`, the IC50 in data set [2] stood at 321 nM.

For `Cc1ccc(CNc2c[nH]nc2-c2nc3ccccc3[nH]2)o1`, the Activity in [1] is 60.5%.

As to `CCN(CC)c1ccc2[nH]c(-c3n[nH]cc3Nc3ncnc4[nH]ccc34)nc2c1`, the IC50 in data set [3] was determined as 78.5 nM; in data set [2], 8.6 nM; in data set [4] it was 36.1 nM. Moreover, the half-life in data set [5] turned out to be 18.5 min. Further, in [6], the microsomal CLint was 75.1 µL/min/mg.

Take `C[C@@H]1CN(c2ccc3[nH]c(-c4n[nH]cc4Nc4ncnc5[nH]ccc45)nc3c2)C[C@H](C)O1`: the IC50 in [3] is 46.8 nM; in data set [2], 3 nM; in data set [4], 4.9 nM. In addition, the half-life in data set [5] stood at 84.3 min. Moreover, the microsomal CLint in [6] amounted to 16.4 µL/min/mg.

For the compound `Cc1nc(Nc2c[nH]nc2-c2nc3cc(C)c(C)cc3[nH]2)c2cc[nH]c2n1`, half-maximal inhibition in data set [2] (IC50) required 154 nM.

With `Cn1c(-c2n[nH]cc2Nc2ccnc(N)n2)nc2ccccc21`, the Activity in data set [1] was determined as 92.3%.

As to `Cc1cc2nc(-c3n[nH]cc3Nc3ncnc4[nH]ccc34)[nH]c2cc1C`, the IC50 in [3] came out at 47.7 nM; in data set [2], 3.6 nM; in data set [4] it was 29.8 nM. For the same compound, the half-life in data set [5] came out at 19.7 min. Further, the microsomal CLint in [6] is 70.4 µL/min/mg.

The compound `Clc1ccc2[nH]c(-c3n[nH]cc3Nc3ncnc4[nH]ccc34)nc2c1` yielded an IC50 in data set [2] of 172 nM.

In data set [2], `c1ccc2[nH]c(-c3n[nH]cc3Nc3ncnc4ccccc34)nc2c1` displayed an IC50 of 107 nM.

As for `COc1cccc2[nH]c(-c3n[nH]cc3Nc3ncnc4[nH]ccc34)nc12`, the IC50 in data set [3] was 29.8 nM; in data set [2], 8.4 nM; in data set [4], 3.3 nM. Besides, the half-life in data set [5] was found to be 97 min. The microsomal CLint in data set [6] came to 14.3 µL/min/mg.

Take `c1ccc2[nH]c(-c3n[nH]cc3NCc3ccncc3)nc2c1`: in [2], 1780 nM corresponded to half-maximal inhibition (IC50).

Source of the values: ChEMBL document CHEMBL5620426, “Discovery of 3-(1H-benzo[d]imidazole-2-yl)-1H-pyrazol-4 -amine derivatives as novel and potent syk inhibitors for the treatment of hematological malignancies” (Eur J Med Chem, 2023).
